Patent publication US7977369B2, “Medical compositions for intravesical treatment of bladder cancer” (Spectrum Pharmaceuticals, Inc., priority 2001, dated 2011)
Converted amounts (≈) assume the structure as drawn. Like-named read-outs stand apart in the source and are kept apart here.

Columns and labels:
A2780 = assay: Chemosensitivity, one hour drug exposure, MTT assay, monolayer; assay type: cell-based, human
Excerpt: (§1) Cell culture and chemosensitivity studies. […] H460 (human NSCLC) cell line was obtained from the American Type Culture Collection (ATCC). HT-29 (human colon carcinoma), RT112/83 (human bladder carcinoma epithelial), EJ138 (human bladder carcinoma) and T24/83 (human bladder transitional cell carcinoma) cell lines were obtained from the European Collection of Animal Cell Cultures (ECACC). A2780 (human ovarian carcinoma) and BE (human colon carcinoma) cells were gifts from Dr T Ward (Paterson Institute, Manchester, UK). All cell lines were maintained as monolayer cultures in RPNII 1640 culture medium supplemented with fetal calf serum (10%), sodium pyruvate (2 mM), L-glutamine (2 mM), penicillin/streptomycin (50 IU/ml/50 jug/ml) and buffered with HEPES (25 mK). All cell culture materials were purchased from Gibco BRL (Paisley, UK). […] Calibration curves were conducted over a broad range of pH values in culture medium (pH 3.5 to 11) and the stability of the pH conditions monitored over a one hour incubation period at 37° C.

BE = assay: as above; assay type: cell-based, human
Excerpt: as §1

EJ138 = assay: as above; assay type: cell-based, human
Excerpt: as §1

H460 = assay: as above; assay type: cell-based, human
Excerpt: as §1

HT-29 = assay: as above; assay type: cell-based, human
Excerpt: as §1

RT112 = assay: as above; assay type: cell-based, human
Excerpt: as §1

T24/83 = assay: as above; assay type: cell-based, human
Excerpt: as §1

histocultures = conditions: cited from earlier work
H460 cells = assay: Response of H460 cells to EO9 in the presence or absence of FAA (2 mM); assay type: cell-based, human; conditions: for IC50: Homo sapiens, NCI-H460, H460 cells
Description: Briefly, H460 cells (NQO1 rich) were plated into 96 well plates at a density of 2×10^3 cells per well. Following an overnight incubation at 37° C., medium was replaced with fresh medium (pH 7.4) containing a non-toxic concentration of FAA (2 mM) and incubated for one hour at 37° C. Medium was then replaced with fresh medium containing EO9 (range of drug concentrations) and FAA (2 mM) at either pHe 7.4 or 6.0. Following a further one hour incubation at 37° C., cells were washed twice with HBSS and incubated at 37° C. in growth medium for five days. Chemosensitivity was determined by the NM assay as described above and results were expressed in terms of IC50 values, selectivity ratios (IC50 at pHe 7.4/IC50 at pHe 6.0) and protection ratios (ICSO FAA/EO9 combinations/IC50 for EO9 alone).

[1] = test system: HT-29 multicell spheroids; assay: Chemosensitivity of HT-29 multicell spheroids; assay type: cell-based, human; conditions: for IC50: Homo sapiens, HT-29, 1 h, spheroids
Description: HT-29 multicell spheroids were prepared by seeding 5×10^5 cells into T25 flasks which had been based coated with agar (1% w/v) and incubated for 24 h at 37° C. Immature spheroids were then transferred to a spinner flask (Techne) containing 250 ml of RPMI 1640 growth medium and spheroids were kept in suspension by stirring at 50 rpm. When spheroids reached a diameter of approximately 500 Am, they were harvested for chemosensitivity studies. Multicell spheroids were exposed to a range of EO9 concentrations at pHe 6.0 and 7.4 for one hour at 37° C. Following drug incubation, spheroids were washed twice in HBSS prior to dissagregation into single cells using trypsin EDTA. Disaggregated spheroids were then washed in HBSS and then plated into 96 well plates (1×10^3 cells per well) and incubated at 37° C. for four days. Chemosensitivity was assessed using the NM assay as described elsewhere (Phillips et al, 1992).

recombinant human NQO1 = molecular target: T1, recombinant human NQO1 (Homo sapiens, UniProt P15559); assay: Substrate specificity: reduction of EO9 by NQO1, cytochrome c reporter; assay type: biochemical
T1 construct: made in house; host or cells: E. coli (pKK233-2 plasmid, IPTG induction)
Description: Substrate specificity. The influence of acidic pHe on substrate specificity for purified human NQ01 was determined as described previously (Phillips 1996, Walton et al, 1991). NQ01 mediated reduction of the quinone to the hydroquinone species is difficult to detect by conventional assays thereby necessitating the use of a reporter signal generating step. In this assay, the hydroquinone acts as an intermediate electron acceptor which subsequently reduces cytochrome c which can readily be detected spectrophotometrically. Recombinant human NQ01 was derived from E. coli transformed with the pKK233-2 expression plasmid containing the full length cDNA sequence for human NQ01 isolated from the (Beall et al, 1994). Following IPTG induction, NQO1 was purified by cybacron blue affinity chromatography, details of which are described elsewhere (Phillips, 1996). […] Reduction of EO9 by recombinant human NQO1 was determined at pH 6.0 and 7.4 by measuring the rate of reduction of cytochrome c was measured at 550 nm on a Beckman DU 650 spectrophotometer according to previously published methods (Phillips, 1996).

[2] = in humans; cited from earlier work
[3] = phase I clinical trials; cited from earlier work
[4] = test system: NSCLC, gastric, breast, pancreatic and colon cancers; conditions: phase II trials; cited from earlier work
[5] = test system: NQ01 rich and deficient tumors; conditions: intratumoural administration; cited from earlier work
[6] = Stability of EO9 at acidic pH; conditions: buffer
[7] = Solubility of EO9 in formulation vehicle and water

T1 sequence (P15559 whole entry): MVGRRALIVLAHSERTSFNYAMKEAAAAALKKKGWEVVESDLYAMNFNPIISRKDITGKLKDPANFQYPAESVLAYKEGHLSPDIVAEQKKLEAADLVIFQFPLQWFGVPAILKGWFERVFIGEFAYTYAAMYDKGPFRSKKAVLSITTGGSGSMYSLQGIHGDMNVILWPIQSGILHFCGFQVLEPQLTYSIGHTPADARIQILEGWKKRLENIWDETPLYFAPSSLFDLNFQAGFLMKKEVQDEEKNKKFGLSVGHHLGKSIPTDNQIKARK

In the case of `CO[C@@]12[C@H](COC(N)=O)C3=C(C(=O)C(C)=C(N)C3=O)N1C[C@@H]1N[C@@H]12` [MMC, Mitomycin C, reference compound], the IC50 (A2780; A2780, pHe 6.0, one hour exposure, read-out: IC50 pHe 6.0) is reported as 1400 ± 130 nM, the IC50 (A2780; A2780, pHe 7.4, one hour exposure, read-out: IC50 pHe 7.4) is reported as 2400 ± 340 nM and the IC50 (BE; BE, pHe 6.0, one hour exposure, read-out: IC50 pHe 6.0) is reported as 4400 ± 215 nM. It also gave an IC50 (BE; BE, pHe 7.4, one hour exposure, read-out: IC50 pHe 7.4) of 7000 ± 192 nM, an IC50 (EJ138; EJ138, pHe 6.0, one hour exposure, read-out: IC50 pHe 6.0) of 1400 ± 250 nM and an IC50 (EJ138; EJ138, pHe 7.4, one hour exposure, read-out: IC50 pHe 7.4) of 1600 ± 200 nM. The IC50 (H460; H460, pHe 6.0, one hour exposure, read-out: IC50 pHe 6.0) was 220 ± 130 nM, the IC50 (H460; H460, pHe 7.4, one hour exposure, read-out: IC50 pHe 7.4) was 900 ± 200 nM and the IC50 (HT-29; HT-29, pHe 6.0, one hour exposure, read-out: IC50 pHe 6.0) was 500 ± 240 nM. The IC50 (HT-29; HT-29, pHe 7.4, one hour exposure, read-out: IC50 pHe 7.4) was 1050 ± 210 nM, the IC50 (RT112; RT112, pHe 6.0, one hour exposure, read-out: IC50 pHe 6.0) was 2000 ± 500 nM and the IC50 (RT112; RT112, pHe 7.4, one hour exposure, read-out: IC50 pHe 7.4) was 3350 ± 250 nM. The IC50 (T24/83; T24/83, pHe 6.0, one hour exposure, read-out: IC50 pHe 6.0) was 2100 ± 800 nM, the IC50 (T24/83; T24/83, pHe 7.4, one hour exposure, read-out: IC50 pHe 7.4) was 2150 ± 93 nM and the “difference in toxicity between physiological and acidic pHe” value (histocultures) was “no difference in toxicity”.

For `Cn1c(/C=C/CO)c(CO)c2c1C(=O)C=C(N1CC1)C2=O` [EO9, 5-(1-aziridinyl)-3-(hydroxymethyl)-2-[(E)-3-hydroxyprop-1-enyl]-1-methyl-1H-indole-4,7-dione], the “SR (selectivity ratio) = IC50 at pH 7.4/IC50 at pH 6.0” value (shortened to “SR (selectivity ratio) = IC50”) (A2780; A2780) was 3.92, the IC50 (A2780; Homo sapiens, A2780, 1 h, read-out: IC50 pHe 6.0) was 51 ± 14 nM and the IC50 (A2780; Homo sapiens, A2780, 1 h, read-out: IC50 pHe 7.4) was 200 ± 50 nM. The “SR (selectivity ratio) = IC50” value (BE; BE) was 4.07, the IC50 (BE; Homo sapiens, 1 h, read-out: IC50 pHe 6.0) was 1300 ± 75 nM and the IC50 (BE; Homo sapiens, 1 h, read-out: IC50 pHe 7.4) was 5300 ± 169 nM. The “SR (selectivity ratio) = IC50” value (EJ138; EJ138) was 7.94, the IC50 (EJ138; Homo sapiens, EJ138, 1 h, read-out: IC50 pHe 6.0) was 39 ± 7 nM and the IC50 (EJ138; Homo sapiens, EJ138, 1 h, read-out: IC50 pHe 7.4) was 310 ± 95 nM. The “SR (selectivity ratio) = IC50” value (H460; H460) was 6.31, the IC50 (H460; Homo sapiens, NCI-H460, 1 h, read-out: IC50 pHe 6.0) was 9.5 ± 2 nM and the IC50 (H460; Homo sapiens, NCI-H460, 1 h, read-out: IC50 pHe 7.4) was 60 ± 10 nM. For the same compound, the “SR (selectivity ratio) = IC50” value (HT-29; HT-29) was 4.13, the IC50 (HT-29; Homo sapiens, HT-29, 1 h, read-out: IC50 pHe 6.0) was 29 ± 10 nM and the IC50 (HT-29; Homo sapiens, HT-29, 1 h, read-out: IC50 pHe 7.4) was 120 ± 53 nM. For the same compound, the IC50 (RT112; Homo sapiens, RT-112, 1 h, read-out: IC50 pHe 6.0) was 61 ± 13 nM, the IC50 (RT112; Homo sapiens, RT-112, 1 h, read-out: IC50 pHe 7.4) was 1050 ± 75 nM and the “SR (selectivity ratio) = IC50” value (RT112; RT112) was 17.21. For the same compound, the IC50 (T24/83; Homo sapiens, T24/83, 1 h, read-out: IC50 pHe 6.0) was 60 ± 18 nM, the IC50 (T24/83; Homo sapiens, T24/83, 1 h, read-out: IC50 pHe 7.4) was 290 ± 65 nM and the “SR (selectivity ratio) = IC50” value (T24/83; T24/83) was 4.83. For the same compound, the “SR = Selectivity Ratio, IC50 at pHe 7.4 divided by IC50 at pHe 6.0” value (H460 cells; H460 cells, with or without FAA 2 mM) was 6.31, the IC50 (H460 cells; pHe 6.0, with or without FAA 2 mM) was 9.5 ± 2.6 nM and the IC50 (H460 cells; pHe 7.4, with or without FAA 2 mM) was 60 ± 8.1 nM. The “ratio of IC50 values for spheroids to monolayers” value ([1]; HT-29, pHe 6.0) was 341, the “ratio of IC50 values for spheroids to monolayers” value ([1]; HT-29, pHe 7.4) was 202 and the IC50 ([1]; pHe 6.0, one hour exposure) was 9890 ± 890 nM. The IC50 ([1]; pHe 7.4, one hour exposure) was 24200 ± 3290 nM, the “cells killed in spheroids” value ([1]; at higher doses) was over 90% and the “rate of reduction of EO9 by purified human NQO1” value (recombinant human NQO1; pH 6.0) was 21.30±1.50 nmol cytochrome c reduced/min/mg protein. The “specific activity, cytochrome c reduced/min/mg protein” value (recombinant human NQO1; pH 6.0) was 21.30±1.5 pmol cytochrome c reduced/min/mg protein, the “rate of reduction of EO9 by purified human NQO1” value (recombinant human NQO1; pH 7.4) was 21.10±2.30 nmol cytochrome c reduced/min/mg protein and the “specific activity, cytochrome c reduced/min/mg protein” value (recombinant human NQO1; pH 7.4) was 21.10±2.3 pmol cytochrome c reduced/min/mg protein. The plasma elimination half-life [2] was 10 min, the clinical response [3] was “three partial remissions” and the clinical activity [4] was “no activity”. For the same compound, the tumor growth delay [5] was “significant growth delays”, the half-life ([6]; pH 5.5) was 37 min and the half-life ([6]; pH 6) was 150 min. It also gave a solubility ([7]; tert-butanol formulation vehicle, aqueous with cosolvent or surfactant or cyclodextrin) of at least 9500 µg/mL and a solubility ([7]; water) of about 200 µg/mL (≈ 694 µM).
